# According to the kinase profiling compilation of Christmann-Franck et al. (2016):
# “And” between values parts separate entries of the source, which are not always exact repeats. Identical values can stand only once.
# Key:
# Assay in all cases: radiometric filter-binding kinase assay, Kinase HotSpot
# Details in all cases: compound 0.5 µM; ATP 10 µM
# DSTYK (human) = DSTYK (human) (UniProt Q6XUX3)
# CAMK4 (human) = CAMK4 (human) (UniProt Q16566)
# MINK1 (human) = MINK1 (human) (UniProt Q8N4C8)
# MINK1 (human), sequence (Q8N4C8 whole entry, looked up): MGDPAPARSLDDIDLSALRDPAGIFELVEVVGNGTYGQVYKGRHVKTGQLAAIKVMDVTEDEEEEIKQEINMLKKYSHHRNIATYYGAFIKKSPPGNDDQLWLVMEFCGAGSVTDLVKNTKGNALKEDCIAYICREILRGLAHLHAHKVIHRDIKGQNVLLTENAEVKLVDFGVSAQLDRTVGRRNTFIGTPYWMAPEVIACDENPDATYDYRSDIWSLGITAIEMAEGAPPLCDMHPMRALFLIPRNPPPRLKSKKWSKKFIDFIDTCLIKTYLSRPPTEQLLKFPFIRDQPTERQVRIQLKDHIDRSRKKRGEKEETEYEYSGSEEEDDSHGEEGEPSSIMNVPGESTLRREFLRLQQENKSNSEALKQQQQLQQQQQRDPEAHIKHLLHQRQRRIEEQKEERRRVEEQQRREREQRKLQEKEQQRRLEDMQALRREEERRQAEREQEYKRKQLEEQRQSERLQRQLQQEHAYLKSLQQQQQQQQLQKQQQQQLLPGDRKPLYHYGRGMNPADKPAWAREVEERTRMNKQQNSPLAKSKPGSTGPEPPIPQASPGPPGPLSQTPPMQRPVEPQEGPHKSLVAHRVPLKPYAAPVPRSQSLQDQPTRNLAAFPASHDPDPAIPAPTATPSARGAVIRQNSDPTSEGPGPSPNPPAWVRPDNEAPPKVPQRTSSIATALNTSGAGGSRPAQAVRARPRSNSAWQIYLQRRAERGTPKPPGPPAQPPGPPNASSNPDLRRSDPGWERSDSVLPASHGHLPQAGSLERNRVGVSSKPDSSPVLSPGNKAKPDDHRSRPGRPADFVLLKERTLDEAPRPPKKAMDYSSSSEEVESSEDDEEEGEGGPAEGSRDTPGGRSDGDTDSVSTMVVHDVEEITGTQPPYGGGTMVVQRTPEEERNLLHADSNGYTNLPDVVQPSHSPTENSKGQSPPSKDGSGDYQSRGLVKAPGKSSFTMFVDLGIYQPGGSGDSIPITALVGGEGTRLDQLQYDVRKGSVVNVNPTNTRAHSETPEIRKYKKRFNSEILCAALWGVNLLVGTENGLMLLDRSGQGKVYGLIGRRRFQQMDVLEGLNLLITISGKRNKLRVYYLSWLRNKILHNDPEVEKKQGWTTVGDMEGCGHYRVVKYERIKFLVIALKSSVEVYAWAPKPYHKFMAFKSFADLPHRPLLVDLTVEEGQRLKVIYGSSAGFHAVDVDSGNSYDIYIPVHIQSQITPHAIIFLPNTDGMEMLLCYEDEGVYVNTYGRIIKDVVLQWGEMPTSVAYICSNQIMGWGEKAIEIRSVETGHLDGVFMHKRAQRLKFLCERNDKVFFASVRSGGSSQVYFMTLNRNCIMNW
# PRKX (human) = PRKX (human) (UniProt P51817)
# PNCK (human) = PNCK (human) (UniProt Q6P2M8)
# MAPK11 (human) = MAPK11 (human) (UniProt Q15759)
# LTK (human) = LTK (human) (UniProt P29376)
# MARK2 (human) = MARK2 (human) (UniProt Q7KZI7)
# PAK1 (human) = PAK1 (human) (UniProt Q13153)
# AURKB (human) = AURKB (human) (UniProt Q96GD4)
# AURKB (human), sequence (Q96GD4 whole entry, looked up): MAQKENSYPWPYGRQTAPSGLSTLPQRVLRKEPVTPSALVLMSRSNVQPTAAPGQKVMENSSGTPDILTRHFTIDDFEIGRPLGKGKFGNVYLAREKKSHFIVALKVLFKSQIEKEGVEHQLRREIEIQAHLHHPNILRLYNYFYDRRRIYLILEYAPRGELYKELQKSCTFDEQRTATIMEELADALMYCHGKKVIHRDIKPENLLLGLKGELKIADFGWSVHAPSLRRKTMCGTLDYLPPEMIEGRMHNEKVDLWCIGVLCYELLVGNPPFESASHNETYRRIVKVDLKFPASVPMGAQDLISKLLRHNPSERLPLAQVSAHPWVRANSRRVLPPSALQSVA
# MLTK (human) = MLTK (human) (UniProt Q9NYL2)
# PDGFRA (human) = PDGFRA (human) (UniProt P16234)
# AURKA (human) = AURKA (human) (UniProt O14965)
# AURKA (human), sequence (O14965 whole entry, looked up): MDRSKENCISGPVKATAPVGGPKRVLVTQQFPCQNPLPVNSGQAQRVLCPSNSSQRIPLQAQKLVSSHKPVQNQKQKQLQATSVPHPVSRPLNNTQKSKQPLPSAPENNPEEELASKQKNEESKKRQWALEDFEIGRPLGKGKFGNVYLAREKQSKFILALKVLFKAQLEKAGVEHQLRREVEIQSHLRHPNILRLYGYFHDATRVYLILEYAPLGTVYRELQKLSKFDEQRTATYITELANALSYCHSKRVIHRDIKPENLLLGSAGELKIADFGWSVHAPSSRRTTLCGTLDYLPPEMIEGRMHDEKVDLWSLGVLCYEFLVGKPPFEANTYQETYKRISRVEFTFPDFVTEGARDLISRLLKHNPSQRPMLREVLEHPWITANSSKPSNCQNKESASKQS
# BRSK1 (human) = BRSK1 (human) (UniProt Q8TDC3)
# FYN (human) = FYN (human) (UniProt P06241)
# FYN (human), sequence (P06241 whole entry, looked up): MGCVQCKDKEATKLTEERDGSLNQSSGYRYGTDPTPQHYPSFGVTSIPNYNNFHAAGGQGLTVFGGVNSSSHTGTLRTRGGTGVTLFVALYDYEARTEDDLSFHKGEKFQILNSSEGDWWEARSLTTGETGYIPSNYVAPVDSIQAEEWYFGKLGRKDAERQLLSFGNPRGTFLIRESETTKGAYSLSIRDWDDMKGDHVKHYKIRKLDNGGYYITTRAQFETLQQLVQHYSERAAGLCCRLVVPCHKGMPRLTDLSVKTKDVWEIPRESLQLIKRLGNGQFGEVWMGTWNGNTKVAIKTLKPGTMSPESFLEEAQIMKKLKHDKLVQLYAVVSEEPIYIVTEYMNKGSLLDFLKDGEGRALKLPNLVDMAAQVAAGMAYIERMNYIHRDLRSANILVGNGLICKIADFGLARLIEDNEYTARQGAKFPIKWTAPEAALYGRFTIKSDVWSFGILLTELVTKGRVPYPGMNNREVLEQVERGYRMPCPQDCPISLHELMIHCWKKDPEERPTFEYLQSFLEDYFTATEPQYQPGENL
# MAP2K1 (human) = MAP2K1 (human) (UniProt Q02750)
# EPHA4 (human) = EPHA4 (human) (UniProt P54764)
# PAK3 (human) = PAK3 (human) (UniProt O75914)
# FGFR3 (human) = FGFR3 (human) (UniProt P22607)
# PDGFRB (human) = PDGFRB (human) (UniProt P09619)
# ABL2 (human) = ABL2 (human) (UniProt P42684)
# DYRK3 (human) = DYRK3 (human) (UniProt O43781)
# RPS6KB2 (human) = RPS6KB2 (human) (UniProt Q9UBS0)
# EPHA2 (human) = EPHA2 (human) (UniProt P29317)
# EPHA2 (human), sequence (P29317 whole entry, looked up): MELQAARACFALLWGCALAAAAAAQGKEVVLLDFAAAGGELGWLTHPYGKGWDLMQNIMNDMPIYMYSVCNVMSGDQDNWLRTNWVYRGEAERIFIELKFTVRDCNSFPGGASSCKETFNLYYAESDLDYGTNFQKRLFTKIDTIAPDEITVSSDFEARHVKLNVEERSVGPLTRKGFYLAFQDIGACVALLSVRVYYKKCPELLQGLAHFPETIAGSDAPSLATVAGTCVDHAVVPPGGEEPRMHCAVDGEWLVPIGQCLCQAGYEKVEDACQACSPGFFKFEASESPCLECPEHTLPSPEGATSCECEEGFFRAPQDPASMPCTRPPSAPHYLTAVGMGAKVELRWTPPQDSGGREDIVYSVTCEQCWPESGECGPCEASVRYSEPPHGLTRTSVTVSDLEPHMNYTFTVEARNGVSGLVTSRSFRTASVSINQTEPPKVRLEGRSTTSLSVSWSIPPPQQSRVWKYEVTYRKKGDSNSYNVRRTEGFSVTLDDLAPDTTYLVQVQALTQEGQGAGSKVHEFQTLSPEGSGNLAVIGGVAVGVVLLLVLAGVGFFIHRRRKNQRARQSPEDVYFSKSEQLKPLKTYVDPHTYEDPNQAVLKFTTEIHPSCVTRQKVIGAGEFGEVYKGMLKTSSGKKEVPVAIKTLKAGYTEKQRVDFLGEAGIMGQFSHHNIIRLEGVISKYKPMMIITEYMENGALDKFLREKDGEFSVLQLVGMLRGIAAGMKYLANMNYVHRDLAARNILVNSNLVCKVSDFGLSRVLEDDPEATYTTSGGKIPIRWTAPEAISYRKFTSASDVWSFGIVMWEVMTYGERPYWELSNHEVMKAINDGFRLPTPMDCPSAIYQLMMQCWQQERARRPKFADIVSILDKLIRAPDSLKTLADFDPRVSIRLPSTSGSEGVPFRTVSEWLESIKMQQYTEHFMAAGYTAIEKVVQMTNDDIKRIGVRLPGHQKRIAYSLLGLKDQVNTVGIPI
# TXK (human) = TXK (human) (UniProt P42681)
# EPHA3 (human) = EPHA3 (human) (UniProt P29320)
# IRAK1 (human) = IRAK1 (human) (UniProt P51617)
# CHEK2 (human) = CHEK2 (human) (UniProt O96017)
# TEK (human) = TEK (human) (UniProt Q02763)
# MAP3K14 (human) = MAP3K14 (human) (UniProt Q99558)
# CAMK2G (human) = CAMK2G (human) (UniProt Q13555)
# GSG2 (human) = GSG2 (human) (UniProt Q8TF76)
# GSG2 (human), sequence (Q8TF76 whole entry, looked up): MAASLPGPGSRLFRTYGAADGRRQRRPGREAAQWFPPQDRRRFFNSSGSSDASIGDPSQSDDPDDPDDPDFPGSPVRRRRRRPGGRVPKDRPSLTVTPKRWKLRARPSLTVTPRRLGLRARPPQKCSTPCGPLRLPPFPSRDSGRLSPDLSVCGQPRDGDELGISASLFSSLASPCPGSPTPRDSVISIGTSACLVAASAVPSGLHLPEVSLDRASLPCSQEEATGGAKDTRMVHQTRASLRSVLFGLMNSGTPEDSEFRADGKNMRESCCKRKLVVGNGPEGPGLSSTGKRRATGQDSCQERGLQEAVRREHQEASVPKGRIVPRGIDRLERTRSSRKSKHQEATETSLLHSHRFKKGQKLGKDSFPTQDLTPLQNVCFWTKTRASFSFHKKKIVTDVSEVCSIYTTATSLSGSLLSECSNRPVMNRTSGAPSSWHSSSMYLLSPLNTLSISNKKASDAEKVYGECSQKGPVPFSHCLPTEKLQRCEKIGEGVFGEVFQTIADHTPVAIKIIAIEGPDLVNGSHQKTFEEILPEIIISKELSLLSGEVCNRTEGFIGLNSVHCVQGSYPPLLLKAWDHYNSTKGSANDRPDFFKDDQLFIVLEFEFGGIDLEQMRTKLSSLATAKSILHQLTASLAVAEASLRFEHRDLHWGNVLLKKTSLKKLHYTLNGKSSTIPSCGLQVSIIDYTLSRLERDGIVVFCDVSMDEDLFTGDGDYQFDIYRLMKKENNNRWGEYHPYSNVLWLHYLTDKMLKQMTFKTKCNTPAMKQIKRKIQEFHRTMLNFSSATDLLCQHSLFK
# FLT3 (human) = FLT3 (human) (UniProt P36888)
# PRKCE (human) = PRKCE (human) (UniProt Q02156)
# CDK1 CCNA2 (human) = CDK1 CCNA2 (human) (UniProt P06493+P20248)
# BMX (human) = BMX (human) (UniProt P51813)
# MST4 (human) = MST4 (human) (UniProt Q9P289)
# MST4 (human), sequence (Q9P289 whole entry, looked up): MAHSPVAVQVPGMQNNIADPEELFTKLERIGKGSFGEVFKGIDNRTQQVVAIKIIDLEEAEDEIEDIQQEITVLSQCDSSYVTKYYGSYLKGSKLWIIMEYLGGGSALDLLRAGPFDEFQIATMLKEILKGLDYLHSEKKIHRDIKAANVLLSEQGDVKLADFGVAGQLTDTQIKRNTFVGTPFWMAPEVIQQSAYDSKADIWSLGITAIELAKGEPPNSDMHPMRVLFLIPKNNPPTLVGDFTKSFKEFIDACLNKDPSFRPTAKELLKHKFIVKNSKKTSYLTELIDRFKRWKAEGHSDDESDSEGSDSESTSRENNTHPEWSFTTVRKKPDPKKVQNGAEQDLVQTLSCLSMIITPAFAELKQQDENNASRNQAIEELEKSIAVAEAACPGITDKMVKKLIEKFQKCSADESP
# DAPK3 (human) = DAPK3 (human) (UniProt O43293)
# EPHB2 (human) = EPHB2 (human) (UniProt P29323)
# ROCK2 (human) = ROCK2 (human) (UniProt O75116)
# BLK (human) = BLK (human) (UniProt P51451)
# PRKG1 (human) = PRKG1 (human) (UniProt Q13976)
smiles,measurement,setting,value
COc1cccc(-c2cc(=O)c3ccccc3o2)c1N,residual activity,DSTYK (human),97.1%
same,residual activity,CAMK4 (human),104%
same,residual activity,MINK1 (human),96.2%
same,residual activity,PRKX (human),101%
same,residual activity,PNCK (human),96.8%
same,residual activity,MAPK11 (human),108%
same,residual activity,LTK (human),75.4%
same,residual activity,MARK2 (human),84.9%
same,residual activity,PAK1 (human),97.5%
same,residual activity,AURKB (human),102%
same,residual activity,MLTK (human),103%
same,residual activity,PDGFRA (human),103%
same,residual activity,AURKA (human),107%
same,residual activity,BRSK1 (human),84.9%
same,residual activity,FYN (human),97.3%
same,residual activity,MAP2K1 (human),69.1%
same,residual activity,EPHA4 (human),98%
same,residual activity,PAK3 (human),90.7%
same,residual activity,FGFR3 (human),91%
same,residual activity,PDGFRB (human),99.4%
same,residual activity,ABL2 (human),96.8%
same,residual activity,DYRK3 (human),90.3%
same,residual activity,RPS6KB2 (human),84.5%
same,residual activity,EPHA2 (human),105%
same,residual activity,TXK (human),94.6%
same,residual activity,EPHA3 (human),96.3%
same,residual activity,IRAK1 (human),98.8%
same,residual activity,CHEK2 (human),98.8%
same,residual activity,TEK (human),93.1%
same,residual activity,MAP3K14 (human),108%
same,residual activity,CAMK2G (human),96.6%
same,residual activity,GSG2 (human),95.7%
same,residual activity,FLT3 (human),96.3%
same,residual activity,PRKCE (human),82.4%
same,residual activity,CDK1 CCNA2 (human),83.8%
same,residual activity,BMX (human),103%
same,residual activity,MST4 (human),110%
same,residual activity,DAPK3 (human),101%
same,residual activity,EPHB2 (human),88%
same,residual activity,ROCK2 (human),91.5%
same,residual activity,BLK (human),107%
same,residual activity,PRKG1 (human),108% and 111%
O=c1c(-c2ccc(F)cc2)c(-c2ccncc2)[nH]n1-c1ccc(Cl)cc1,residual activity,DSTYK (human),92.9%
same,residual activity,CAMK4 (human),104%
same,residual activity,MINK1 (human),97.3%
same,residual activity,PRKX (human),97%
same,residual activity,PNCK (human),92%
same,residual activity,MAPK11 (human),55.9%
same,residual activity,LTK (human),75.5%
same,residual activity,MARK2 (human),88.8%
same,residual activity,PAK1 (human),92.4%
same,residual activity,AURKB (human),95.1%
same,residual activity,MLTK (human),91.2%
same,residual activity,PDGFRA (human),103%
same,residual activity,AURKA (human),94%
same,residual activity,BRSK1 (human),88.7%
same,residual activity,FYN (human),94.8%
same,residual activity,MAP2K1 (human),70.1%
same,residual activity,EPHA4 (human),93.5%
same,residual activity,PAK3 (human),98.3%
same,residual activity,FGFR3 (human),88.1%
same,residual activity,PDGFRB (human),101%
same,residual activity,ABL2 (human),82.8%
same,residual activity,DYRK3 (human),82.7%
same,residual activity,RPS6KB2 (human),95.5%
same,residual activity,EPHA2 (human),101%
same,residual activity,TXK (human),94.4%
same,residual activity,EPHA3 (human),84.4%
same,residual activity,IRAK1 (human),103%
same,residual activity,CHEK2 (human),91.4%
same,residual activity,TEK (human),94.4%
same,residual activity,MAP3K14 (human),102%
same,residual activity,CAMK2G (human),109%
same,residual activity,GSG2 (human),96.5%
same,residual activity,FLT3 (human),92.8%
same,residual activity,PRKCE (human),96.7%
same,residual activity,CDK1 CCNA2 (human),83.1%
same,residual activity,BMX (human),95.8%
same,residual activity,MST4 (human),94.1%
same,residual activity,DAPK3 (human),94.7%
same,residual activity,EPHB2 (human),101%
same,residual activity,ROCK2 (human),89.5%
same,residual activity,BLK (human),91.6%
same,residual activity,PRKG1 (human),106% and 95.6%
COc1cc2ncnc(Nc3ccc(O)c(Br)c3)c2cc1OC,residual activity,DSTYK (human),106%
same,residual activity,CAMK4 (human),95.6%
same,residual activity,MINK1 (human),64.4%
same,residual activity,PRKX (human),89.2%
same,residual activity,PNCK (human),103%
same,residual activity,MAPK11 (human),90.1%
same,residual activity,LTK (human),5.44%
same,residual activity,MARK2 (human),94.5%
same,residual activity,PAK1 (human),94.1%
same,residual activity,AURKB (human),63.5%
same,residual activity,MLTK (human),89%
same,residual activity,PDGFRA (human),88.9%
same,residual activity,AURKA (human),83.1%
same,residual activity,BRSK1 (human),81.6%
same,residual activity,FYN (human),80.4%
same,residual activity,MAP2K1 (human),98.2%
same,residual activity,EPHA4 (human),83.7%
same,residual activity,PAK3 (human),94.2%
same,residual activity,FGFR3 (human),98.8%
same,residual activity,PDGFRB (human),93.7%
same,residual activity,ABL2 (human),58.4%
same,residual activity,DYRK3 (human),95.3%
same,residual activity,RPS6KB2 (human),102%
same,residual activity,EPHA2 (human),80.6%
same,residual activity,TXK (human),83.3%
same,residual activity,EPHA3 (human),95.4%
same,residual activity,IRAK1 (human),75.5%
same,residual activity,CHEK2 (human),51%
same,residual activity,TEK (human),93.8%
same,residual activity,MAP3K14 (human),82.6%
same,residual activity,CAMK2G (human),95.2%
same,residual activity,GSG2 (human),84.8%
same,residual activity,FLT3 (human),6.34%
same,residual activity,PRKCE (human),93.2%
same,residual activity,CDK1 CCNA2 (human),101%
same,residual activity,BMX (human),95.3%
same,residual activity,MST4 (human),90.2%
same,residual activity,DAPK3 (human),99.1%
same,residual activity,EPHB2 (human),66.1%
same,residual activity,ROCK2 (human),89.9%
same,residual activity,BLK (human),83.8%
same,residual activity,PRKG1 (human),87.1% and 88.9%
COc1cc2c(cc1OC)-c1[nH]nc(Nc3cccc(F)c3)c1C2,residual activity,DSTYK (human),93.3%
same,residual activity,CAMK4 (human),106%
same,residual activity,MINK1 (human),83.6%
same,residual activity,PRKX (human),103%
same,residual activity,PNCK (human),98%
same,residual activity,MAPK11 (human),83%
same,residual activity,LTK (human),93.3%
same,residual activity,MARK2 (human),77.2%
same,residual activity,PAK1 (human),96.9%
same,residual activity,AURKB (human),79.2%
same,residual activity,MLTK (human),44.7%
same,residual activity,PDGFRA (human),33.4%
same,residual activity,AURKA (human),94.6%
same,residual activity,BRSK1 (human),89.3%
same,residual activity,FYN (human),73.4%
same,residual activity,MAP2K1 (human),90.1%
same,residual activity,EPHA4 (human),93.3%
same,residual activity,PAK3 (human),93.1%
same,residual activity,FGFR3 (human),99.6%
same,residual activity,PDGFRB (human),45.3%
same,residual activity,ABL2 (human),21.4%
same,residual activity,DYRK3 (human),84.4%
same,residual activity,RPS6KB2 (human),100%
same,residual activity,EPHA2 (human),93.8%
same,residual activity,TXK (human),60.6%
same,residual activity,EPHA3 (human),94.5%
same,residual activity,IRAK1 (human),97.8%
same,residual activity,CHEK2 (human),96.5%
same,residual activity,TEK (human),92.5%
same,residual activity,MAP3K14 (human),105%
same,residual activity,CAMK2G (human),101%
same,residual activity,GSG2 (human),84.8%
same,residual activity,FLT3 (human),25%
same,residual activity,PRKCE (human),87.9%
same,residual activity,CDK1 CCNA2 (human),92.6%
same,residual activity,BMX (human),74.8%
same,residual activity,MST4 (human),97%
same,residual activity,DAPK3 (human),100%
same,residual activity,EPHB2 (human),94.8%
same,residual activity,ROCK2 (human),95.2%
same,residual activity,BLK (human),74.2%
same,residual activity,PRKG1 (human),104% and 95.2%
